Assay results reported in patent publication US11439708B2, “Nanotube trans-membrane channels mimicking biological porins” (LAWRENCE LIVERMORE NATIONAL SECURITY, LLC, priority 2014, dated 2022).

Assays:
[1] = Single channel recordings of conductance in supported lipid bilayer; type: biochemical; details: 1 M KCl, transmembrane potential 75 mV, positive control
[2] = design: unit not given here; details: literature value (ref 30); cited from earlier work

## gramicidin A
[1]
  conductance of Gramicidin channels: 0.058±0.008 nS
[2]
  reported conductance of gramicidin: 0.0459±0.005
